# Laboratory results published in article PMC8359942, “Native Mass Spectrometry for the Study of PROTAC GNE‐987‐Containing Ternary Complexes” (Chemmedchem, 2021).
# Experiments:
# [1] = biological target: T1, Brd4 bromodomain 1 (Brd4^B1) (Homo sapiens, UniProt O60885); test: native nESI-FT-ICR mass spectrometry, binary binding; also […] ternary complex with VCB (maximum ratio […] at […])
# T1 construct: bromodomain 1 (avi-tagged, partly biotinylated)
# [2] = biological target: T2, Brd4 bromodomain 2 (Brd4^B2) (Homo sapiens, UniProt O60885); test: native nESI-FT-ICR mass spectrometry, binary binding; also […] ternary complex with VCB (maximum ratio […])
# T2 construct: bromodomain 2
# [3] = biological target: T3, Von Hippel‐Lindau (VHL) E3‐Ubiquitin Ligase, as VCB complex (Homo sapiens, UniProt P40337); test: native nESI-FT-ICR mass spectrometry, binary binding; also ternary complex with Brd4 B1 or B2
# T3 construct: VHL complexed with Elongins B and C (VCB); with Elongin B and Elongin C
# T3 sequence (P40337 whole entry): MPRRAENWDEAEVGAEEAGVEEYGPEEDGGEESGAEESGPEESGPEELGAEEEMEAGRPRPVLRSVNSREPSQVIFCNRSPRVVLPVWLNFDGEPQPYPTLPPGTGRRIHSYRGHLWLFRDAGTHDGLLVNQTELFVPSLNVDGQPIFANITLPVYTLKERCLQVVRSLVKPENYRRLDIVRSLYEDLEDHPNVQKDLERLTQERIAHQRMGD
# T3 sequence (Q15370 whole entry partner): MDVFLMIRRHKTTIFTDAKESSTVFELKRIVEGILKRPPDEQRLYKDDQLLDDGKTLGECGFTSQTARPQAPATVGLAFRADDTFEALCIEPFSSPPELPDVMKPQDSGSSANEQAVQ
# T3 sequence (Q15369 whole entry partner): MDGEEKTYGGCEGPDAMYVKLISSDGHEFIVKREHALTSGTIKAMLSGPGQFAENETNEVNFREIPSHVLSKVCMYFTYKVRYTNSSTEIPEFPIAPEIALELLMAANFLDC
substance,measurement,setting,value
GNE-987,% bound at 5 μM,[1],40 % bound at 5 μM
same,% bound at 5 μM,[2],45 % bound at 5 μM
same,% bound at 5 μM,[3],57 % bound at 5 μM
